# Test results taken from US8758988B2, “Cryopreservation of articular cartilage” (The Governors of the University of Alberta, priority 2009, dated 2014).
# Read-outs that look alike come from different tables or passages of the source.
# How the values were obtained:
# [1] = Arrhenius fit of CPA diffusion coefficients (constants and activation energies); format: physicochemical; conditions: for Ea (activation energy) / Dcwo (Arrhenius constant): Table (1), Arrhenius fit of diffusion coefficients; for Dcwo (Arrhenius constant): R = 0.001986 Kcal/(mol. K)
# Procedure: Full thickness AC (on 5-10 mm bone base) is harvested from the sample tissue using a hand-held coring device and held at 4° C. in 1× Dulbecco's phosphate-buffered saline (PBS) solution (pH 7.1) (Gibco Invitrogen, Carlsbad, Calif.). Each osteochondral dowel (OCD) is assigned to one of four CPA treatment groups [DMSO, PG, EG, glycerol (all at 6.5M, in 1×PBS)] and one of 11 incubation times (1 second, 1, 2, 5, 10, 15, 30, 60, 120, 180 minutes, 24 hours), as well as one of three temperatures (4, 22, 37° C.). Each combination of treatment, time, and temperature is repeated at least three times.
# The tissue sample is isolated by scalpel and the tissue returned to 1×PBS for 5 min, then blotted lightly using Kimwipes® tissue (Kimberly-Clark, Roswell, Ga.) to remove excess fluid from the sample surface, weighed (W1), and immediately immersed in 5 ml of CPA solution for the specified incubation time at the specified temperature. After incubation, the sample is removed from the solution, blotted lightly and weighed for a second time (W2). The sample is then placed into a 35×10 mm cell culture dish (Corning Inc., Corning, N.Y.) containing 4 mL of 1×PBS, fully immersed in the PBS and the dish sealed with Parafilm® (American National Can, Chicago, Ill.) and held for 24 h at 22° C. under dark conditions to allow the CPA within the AC disc to fully equilibrate with the surrounding PBS solution. After 24 h, the CPA/PBS solution is mixed using a pipettor and a 1 mL sample is taken into a 1.5 mL microcentrifuge tube (Thermo Fisher Scientific, Waltham, Mass.). From this sample, 50 μL is placed into a μOSMETTE™ micro-osmometer (Precision Systems, Natick, Mass.) to determine its osmolality (Osm).
# The values of the diffusion coefficients for the single CPA diffusion in water were used in the calculations. The values of the diffusion coefficients were calculated before, by fitting Fick's law to the experimental data, as explained in the preceding section of this patent labeled “Permeation Kinetics of CPAs in AC matrix”.
# [formula] at x=0, and CCPA=C* at x=THK, where C* is the concentration of the CPA in the external bath at each step of the protocol. The temperature dependence of the diffusion coefficients was calculated by fitting an Arrhenius equation to the values of diffusion coefficients obtained for each CPA at 3 different temperatures as in the preceding section of this patent labeled “Permeation Kinetics of CPAs in AC matrix”. The values of diffusion coefficients were taken from Jomha et al (N M Jomha, G K Law, A Abazari, K Rekieh, J A W Elliott, L E McGann. Permeation of several cryoprotectant agents into porcine articular cartilage. Cryobiology 58(1), 110-114, 2009). For F (formamide), 2 values for diffusion coefficients of formamide in water at 2 different temperatures were extracted from the literature:
# Then, these values were fitted to an Arrhenius equation to calculate the constant and activation energy for formamide. As an example, the increase in the minimum DMSO concentration in cartilage, diffusing from a bath of 3 M DMSO solution, at −10° C., was calculated by solving Eqn. (8) as the following:
# First, the diffusion coefficient of DMSO in water at −10° C. was calculated from the results of the Arrhenius fit in Table (1). DDMSO(at T=−10° C.=263 K)=298.95×10^−9×exp(−3.9/0.001986/263)=1.71×10^−10 m^2/s
# [2] = formamide in water, cited from earlier work
Structure (SMILES),Ea (activation energy) [1] [kcal/mol],Dcwo (Arrhenius constant) [1],Diffusion coefficient (m^2/s) ([2]; Temperature 278.2 K),Diffusion coefficient (m^2/s) ([2]; Temperature 298.15 K),"diffusion coefficient of DMSO in water ([1]; at T=−10° C.=263 K, calculated from the Arrhenius fit in Table (1))"
"OCCO [E (EG), ethylene glycol]",3.8,183.30 ×10^−9 m^2/s,,,
"NC=O [F (Form), formamide]",4.198,1903.510 ×10^−9 m^2/s,0.95 × 10^−9 m^2/s,1.58 × 10^−9 m^2/s,
"C[S+](C)[O-] [D (DMSO), dimethyl sulfoxide]",3.9,298.95 ×10^−9 m^2/s,,,1.71×10^−10 m^2/s
"CC(O)CO (stereo not shown) [P (PG), propylene glycol]",6.63,16971.0 ×10^−9 m^2/s,,,
"OCC(O)CO [G (Gly), glycerol]",5.6,208.03 ×10^−9 m^2/s,,,
